Results: patent US9422280B2, “N-substituted hetero-bicyclic compounds and derivatives for combating animal pests II” (BASF SE, priority 2012, dated 2016)

How the values were obtained:
Format in all cases: in vivo
[1] = tested on: Cotton Aphid (Aphis gossypii); experiment: Cotton aphid cotyledon dip test; settings: 120 h, cotton cotyledons dipped, mortality counts after 5 days, read-out: mortality in comparison with untreated controls
From the text: B.2 Cotton Aphid (Aphis gossypii)
The active compounds were formulated in 50:50 (vol:vol) acetone:water and 100 ppm Kinetica™ surfactant.
Cotton plants at the cotyledon stage (one plant per pot) were infested by placing a heavily infested leaf from the main colony on top of each cotyledon. The aphids were allowed to transfer to the host plant overnight, and the leaf used to transfer the aphids was removed. The cotyledons were dipped in the test solution and allowed to dry. After 5 days, mortality counts were made.

[2] = tested on: Cowpea Aphid (Aphis craccivora); experiment: Cowpea aphid spray test on potted cowpea plants; settings: sprayed cowpea plants, population reduction assessed after 24, 72 and 120 hours, read-out: mortality in comparison with untreated controls
Protocol: B.3 Cowpea Aphid (Aphis craccivora)
The active compound is dissolved at the desired concentration in a mixture of 1:1 (vol:vol) distilled water:acetone. The test solution is prepared at the day of use.
Potted cowpea plants colonized with approximately 100-150 aphids of various stages were sprayed after the pest population has been recorded. Population reduction was assessed after 24, 72, and 120 hours.

[3] = tested on: Vetch Aphid (Megoura viciae); experiment: Vetch aphid broad bean leaf disk microtiter test; settings: foliar, 120 h, sprayed broad bean leaf disks, 5 days, read-out: mortality in comparison with untreated controls
Protocol: B.4 Vetch Aphid (Megoura viciae)
For evaluating control of vetch aphid (Megoura viciae) through contact or systemic means the test unit consisted of 24-well-microtiter plates containing broad bean leaf disks.
The compounds were formulated using a solution containing 75% v/v water and 25% v/v DMSO. Different concentrations of formulated compounds were sprayed onto the leaf disks at 2.5 μl, using a custom built micro atomizer, at two replications.
After application, the leaf disks were air-dried and 5-8 adult aphids placed on the leaf disks inside the microtiter plate wells. The aphids were then allowed to suck on the treated leaf disks and incubated at about 23±1° C. and about 50±5% relative humidity for 5 days. Aphid mortality and fecundity was then visually assessed.

[4] = tested on: Silverleaf Whitefly (bemisia argentifolii); experiment: Silverleaf whitefly spray test on cotton plants; settings: 72 h, sprayed cotton plants, whitefly adults, 3 days after treatment, read-out: mortality in comparison with untreated controls
From the text: B.5 Silverleaf Whitefly (bemisia argentifolii)
(§1) The active compounds were formulated in cyclohexanone as a 10,000 ppm solution supplied in tubes. The tubes were inserted into an automated electrostatic sprayer equipped with an atomizing nozzle and they served as stock solutions for which lower dilutions were made in 50% acetone:50% water (v/v). A nonionic surfactant (Kinetic®) was included in the solution at a volume of 0.01% (v/v).
Cotton plants at the cotyledon stage (one plant per pot) were sprayed by an automated electrostatic plant sprayer equipped with an atomizing spray nozzle. The plants were dried in the sprayer fume hood and then removed from the sprayer. Each pot was placed into a plastic cup and about 10 to 12 whitefly adults (approximately 3-5 days old) were introduced. The insects were collected using an aspirator and a nontoxic Tygon® tubing connected to a barrier pipette tip. The tip, containing the collected insects, was then gently inserted into the soil containing the treated plant, allowing insects to crawl out of the tip to reach the foliage for feeding. Cups were covered with a reusable screened lid. […] Mortality was assessed 3 days after treatment, compared to untreated control plants.

[5] = tested on: Orchid Thrips (dichromothrips corbetti); experiment: Orchid thrips floral-immersion test; settings: dipped orchid flowers, adult thrips, 72 hours after treatment, read-out: mortality in comparison with untreated controls
Protocol: B.7 Orchid Thrips (dichromothrips corbetti)
Dichromothrips corbetti adults used for bioassay were obtained from a colony maintained continuously under laboratory conditions. For testing purposes, the test compound is diluted in a 1:1 mixture of acetone:water (vol:vol), plus 0.01% vol/vol Alkamuls® EL 620 surfactant.
Thrips potency of each compound was evaluated by using a floral-immersion technique. Plastic petri dishes were used as test arenas. All petals of individual, intact orchid flowers were dipped into treatment solution and allowed to dry. Treated flowers were placed into individual petri dishes along with about 20 adult thrips. The petri dishes were then covered with lids. All test arenas were held under continuous light and a temperature of about 28° C. for duration of the assay. After 3 days, the numbers of live thrips were counted on each flower, and along inner walls of each petri dish. The percentmortality was recorded 72 hours after treatment.

[6] = tested on: Rice Green Leafhopper (Nephotettix virescens); experiment: Rice green leafhopper spray test on rice seedlings; settings: sprayed rice seedlings, adults, after 72 hours, read-out: mortality in comparison with untreated controls
Protocol: B.8 Rice Green Leafhopper (Nephotettix virescens)
(§2) Rice seedlings were cleaned and washed 24 hours before spraying. The active compounds were formulated in 50:50 acetone:water (vol:vol), and 0.1% vol/vol surfactant (EL 620) was added. Potted rice seedlings were sprayed with 5 ml test solution, air dried, placed in cages and inoculated with 10 adults. Treated rice plants were kept at about 28-29° C. and relative humidity of about 50-60%. Percent mortality was recorded after 72 hours.

[7] = tested on: Rice Brown Plant Hopper (Nilaparvata lugens); experiment: Rice brown plant hopper spray test on rice seedlings; settings: sprayed rice seedlings, adults, after 72 hours, read-out: mortality in comparison with untreated controls
Protocol: B.9 Rice Brown Plant Hopper (Nilaparvata lugens)
as §2, with “(vol:vol)” for “(vol:vol),”

[8] = tested on: Green Peach Aphid (Myzus persicae); experiment: Green peach aphid foliar spray test on bell pepper; settings: 120 h, sprayed bell pepper plants, aphid mortality after 5 days, read-out: mortality in comparison with untreated controls
From the text: B.1 Green Peach Aphid (Myzus persicae)
as §1
Bell pepper plants at the first true-leaf stage were infested prior to treatment by placing heavily infested leaves from the main colony on top of the treatment plants. Aphids were allowed to transfer overnight to accomplish an infestation of 30-50 aphids per plant and the host leaves were removed. The infested plants were then sprayed by an automated electrostatic plant sprayer equipped with an atomizing spray nozzle. The plants were dried in the sprayer fume hood, removed, and then maintained in a growth room under fluorescent lighting in a 24-hr photoperiod at about 25° C. and about 20-40% relative humidity. Aphid mortality on the treated plants, relative to mortality on untreated control plants, was determined after 5 days.

[9] = tested on: Boll Weevil (Anthonomus grandis); experiment: Boll weevil insect diet microtiter test; settings: 120 h, sprayed onto insect diet with eggs, egg and larval mortality after 5 days, read-out: mortality in comparison with untreated controls
Protocol: B.6 Boll Weevil (Anthonomus grandis)
For evaluating control of boll weevil (Anthonomus grandis) the test unit consisted of 24-well-microtiter plates containing an insect diet and 20-30 A. grandis eggs.
The compounds were formulated using a solution containing 75% v/v water and 25% v/v DMSO. Different concentrations of formulated compounds were sprayed onto the insect diet at 20 μl, using a custom built micro atomizer, at two replications.
After application, microtiter plates were incubated at about 23±1° C. and about 50±5% relative humidity for 5 days. Egg and larval mortality was then visually assessed.

Compound | mortality at 300 ppm [1] | mortality at 500 ppm [2] | mortality at 800 ppm [3] | mortality at 500 ppm [4] | mortality at 500 ppm [5] | mortality at 500 ppm [6] | mortality at 500 ppm [7] | mortality at 300 ppm [8] | mortality at 2500 ppm [9]
FC(F)(F)c1nc2cccn(Cc3ccc(Cl)nc3)c-2n1 [E1.15, 4-[(6-chloro-3-pyridyl)methyl]-2-(trifluoromethyl)imidazo[4,5-b]pyridine] | ≥ 75% | ≥ 75% | ≥ 75% | ≥ 75% | ≥ 75% | ≥ 75% | ≥ 75% |  | 
CSc1nc2cccn(Cc3ccc(Cl)nc3)c-2n1 [E1.4, 4-[(6-chloro-3-pyridyl)methyl]-2-methylsulfanyl-imidazo[4,5-b]pyridine] |  | ≥ 75% | ≥ 75% |  |  |  |  |  | 
Clc1ccc(Cn2cccc3nc(Cl)nc2-3)cn1 [E1.8, 2-chloro-4-[(6-chloro-3-pyridyl)methyl]imidazo[4,5-b]pyridine] | ≥ 75% | ≥ 75% | ≥ 75% | ≥ 75% | ≥ 75% | ≥ 75% | ≥ 75% | ≥ 75% | > 75%
